Results taken from patent US20240317752A1, “6-SUBSTITUTED-9H-PURINE DERIVATIVES AND RELATED USES” (Black Diamond Therapeutics, Inc., priority 2021, published 2024).

What follows are molecules tested against T1, BaF3 BRAF-KIAA1549 fusion cells (Homo sapiens, UniProt P15056) (assay: BaF3 BRAF-KIAA1549 fusion cell proliferation assay (CellTiterGlo)). Conditions: 96 hours incubation, potency code.
T1 construct: The BRAF-KIAA1549 fusion mutant was subcloned into pMXs-IRES-Blasticidin (RTV-016, Cell Biolabs, San Diego, CA); fused on or other part: Q9HCM3 (UPF0606 protein KIAA1549)
T1 sequence (P15056 whole entry, change not shown, the tested form may be a part): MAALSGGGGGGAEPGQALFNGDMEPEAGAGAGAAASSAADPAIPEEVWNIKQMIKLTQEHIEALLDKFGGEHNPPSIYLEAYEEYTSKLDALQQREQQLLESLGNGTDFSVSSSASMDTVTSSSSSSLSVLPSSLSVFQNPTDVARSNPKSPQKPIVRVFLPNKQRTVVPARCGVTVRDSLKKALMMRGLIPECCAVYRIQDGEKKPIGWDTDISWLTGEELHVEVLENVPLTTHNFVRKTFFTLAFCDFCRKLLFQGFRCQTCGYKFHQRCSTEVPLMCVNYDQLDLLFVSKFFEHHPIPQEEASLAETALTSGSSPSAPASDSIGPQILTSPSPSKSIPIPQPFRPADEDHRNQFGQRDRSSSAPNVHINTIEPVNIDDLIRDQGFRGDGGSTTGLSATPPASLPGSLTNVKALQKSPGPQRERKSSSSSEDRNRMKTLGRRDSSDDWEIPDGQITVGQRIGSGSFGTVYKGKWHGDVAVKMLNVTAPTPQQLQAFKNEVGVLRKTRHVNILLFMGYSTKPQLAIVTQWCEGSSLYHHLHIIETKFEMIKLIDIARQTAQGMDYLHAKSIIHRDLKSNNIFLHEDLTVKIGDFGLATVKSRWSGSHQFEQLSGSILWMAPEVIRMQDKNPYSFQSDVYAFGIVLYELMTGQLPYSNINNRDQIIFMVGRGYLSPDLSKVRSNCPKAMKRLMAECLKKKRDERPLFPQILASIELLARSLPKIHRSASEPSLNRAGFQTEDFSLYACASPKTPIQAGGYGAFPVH
Format: cell-based
Summary of the method: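 BaF3 cells stably transduced with a BRAF-KIAA1549 fusion, blasticidin-selected and growing without IL-3, were treated with compound for 96 h in RPMI/10% heat-inactivated FBS. Viability read as ATP content by CellTiterGlo luminescence, normalised to DMSO-treated cells. IC50 by Levenberg-Marquardt fit.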
With `Cc1ccc(NC(=O)CN2CCCNCC2)cc1Nc1ncccc1-c1ncnc2[nH]cnc12` [IA-134, N-(3-((3-(9H-purin-6-yl)pyridin-2-yl)amino)-4-methylphenyl)-2-(1,4-diazepan-1-yl)acetamide] the GI50 was no less than 0.5 µM. Work on `Cc1ccc(NC(=O)CN2CCCN(C)CC2)cc1Nc1ncccc1-c1ncnc2[nH]cnc12` [IA-135, N-(3-((3-(9H-purin-6-yl)pyridin-2-yl)amino)-4-methylphenyl)-2-(4-methyl-1,4-diazepan-1-yl)acetamide] yielded a GI50 of no less than 0.5 µM. `Cc1ccc(NC(=O)CC2CCN(C)CCO2)cc1Nc1ncccc1-c1ncnc2[nH]cnc12` (centres unmarked) [IA-136, N-(3-(3-(9H-purin-6-yl)pyridin-2-ylamino)-4-methylphenyl)-2-(4-methyl-1,4-oxazepan-7-yl)acetamide] gave a GI50 of no less than 0.5 µM. `Cc1ccc(NC(=O)c2cccc(C(F)(F)F)c2)cc1Nc1ncccc1-c1ncnc2[nH]cnc12` [IA-145, N-(3-((3-(9H-purin-6-yl)pyridin-2-yl)amino)-4-methylphenyl)-3-(trifluoromethyl)benzamide] gave a GI50 of less than 0.02 µM. `Cc1nc(-c2cccnc2Nc2cc(NC(=O)c3cc(C(F)(F)F)ccn3)ccc2C)c2nc[nH]c2n1` [IA-150, N-(4-methyl-3-((3-(2-methyl-9H-purin-6-yl)pyridin-2-yl)amino)phenyl)-4-(trifluoromethyl)picolinamide] showed a GI50 of no less than 0.5 µM. `Cc1ccc(NC(=O)c2cc(C(F)(F)F)ccn2)cc1Nc1ncccc1-c1nc(F)nc2[nH]cnc12` [IA-151, N-(3-(3-(2-fluoro-9H-purin-6-yl)pyridin-2-ylamino)-4-methylphenyl)-4-(trifluoromethyl)picolinamide] was tested, and the GI50 was no less than 0.5 µM. In the case of `Cc1ccc(NC(=O)c2cc(C(F)(F)F)ccn2)cc1Nc1nccc(C)c1-c1ncnc2[nH]cnc12` [IA-152], the GI50 is reported as no less than 0.5 µM. `Cc1ccc(C(=O)Nc2cccc(C(F)(F)F)c2)cc1Nc1ncccc1-c1ncnc2[nH]cnc12` [II-3, 3-((3-(9H-Purin-6-yl)pyridin-2-yl)amino)-4-methyl-N-(3-(trifluoromethyl)phenyl)benzamide] gave a GI50 of less than 0.02 µM.
